# PubChem BioAssay (NCI)
# Several values for one entry are separate records, joined by “and”; a condition that tells them apart may be missing. Equal entries are not always repeated.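 Dose response: 5 concentrations. Exposure: 48 h. Format: 96-well plates. Endpoint: linear interpolation; highest concentration if not reached. Here, GI50 denotes the concentration required for 50% inhibition of growth. TGI: concentration producing complete growth inhibition.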
# Key:
# Test in all cases: inhibition of tumour cell growth, NCI panel, 48 h
# LOX IMVI melanoma = test system: LOX IMVI melanoma
# DU-145 prostate = test system: DU-145 prostate
# OVCAR-8 ovarian = test system: OVCAR-8 ovarian
# COLO 205 colon = test system: COLO 205 colon
# HS 578T breast = test system: HS 578T breast
# SF-539 CNS = test system: SF-539 CNS
# TK-10 renal = test system: TK-10 renal
# BT-549 breast = test system: BT-549 breast
# SR leukemia = test system: SR leukemia
# SF-295 CNS = test system: SF-295 CNS
# CAKI-1 renal = test system: CAKI-1 renal
# CCRF-CEM leukemia = test system: CCRF-CEM leukemia
# NCI-H23 lung = test system: NCI-H23 lung
# SK-MEL-2 melanoma = test system: SK-MEL-2 melanoma
# KM12 colon = test system: KM12 colon
# RXF 393 renal = test system: RXF 393 renal
# UO-31 renal = test system: UO-31 renal
# MDA-MB-435 = test system: MDA-MB-435
# NCI-H522 lung = test system: NCI-H522 lung
# PC-3 prostate = test system: PC-3 prostate
# K-562 leukemia = test system: K-562 leukemia
# SK-MEL-5 melanoma = test system: SK-MEL-5 melanoma
# A549 NSCLC = test system: A549 NSCLC
# UACC-257 melanoma = test system: UACC-257 melanoma
# T-47D breast = test system: T-47D breast
# EKVX NSCLC = test system: EKVX NSCLC
# NCI-H226 lung = test system: NCI-H226 lung
# A498 renal = test system: A498 renal
# RPMI-8226 leukemia = test system: RPMI-8226 leukemia
# 786-0 renal = test system: 786-0 renal
# IGROV1 ovarian = test system: IGROV1 ovarian
# SN12C renal = test system: SN12C renal
# OVCAR-5 ovarian = test system: OVCAR-5 ovarian
# MALME-3M melanoma = test system: MALME-3M melanoma
# NCI-H460 lung = test system: NCI-H460 lung
# HT29 colon = test system: HT29 colon
# HOP-62 NSCLC = test system: HOP-62 NSCLC
# UACC-62 melanoma = test system: UACC-62 melanoma
# NCI/ADR-RES ovarian = test system: NCI/ADR-RES ovarian
# ACHN renal = test system: ACHN renal
# HCC-2998 colon = test system: HCC-2998 colon
# SK-OV-3 ovarian = test system: SK-OV-3 ovarian
# M14 melanoma = test system: M14 melanoma
# SK-MEL-28 melanoma = test system: SK-MEL-28 melanoma
# HCT-15 colon = test system: HCT-15 colon
# HL-60(TB) leukemia = test system: HL-60(TB) leukemia
# MOLT-4 leukemia = test system: MOLT-4 leukemia
# SF-268 CNS = test system: SF-268 CNS
# OVCAR-3 ovarian = test system: OVCAR-3 ovarian
# HCT-116 colon = test system: HCT-116 colon
# HOP-92 NSCLC = test system: HOP-92 NSCLC
# U251 CNS = test system: U251 CNS
# SNB-19 CNS = test system: SNB-19 CNS
# SW-620 colon = test system: SW-620 colon
# SNB-75 CNS = test system: SNB-75 CNS
# OVCAR-4 ovarian = test system: OVCAR-4 ovarian
# MDA-MB-231 breast = test system: MDA-MB-231 breast
# MCF7 breast = test system: MCF7 breast
smiles,measurement,setting,value
CO[C@@H](C(=O)N1Cc2[nH]nc(NC(=O)c3ccc(N4CCN(C)CC4)cc3)c2C1)c1ccccc1,GI50,LOX IMVI melanoma,255 nM and 82.5 nM
same,TGI,LOX IMVI melanoma,2050 nM and 1820 nM
same,GI50,DU-145 prostate,2020 nM and 1930 nM
same,TGI,DU-145 prostate,17900 nM and > 10000 nM
same,GI50,OVCAR-8 ovarian,2270 nM and 1840 nM
same,TGI,OVCAR-8 ovarian,> 100000 nM
same,GI50,COLO 205 colon,48.3 nM and 39.5 nM
same,TGI,COLO 205 colon,1030 nM and 625 nM
same,GI50,HS 578T breast,1370 nM and 232 nM
same,TGI,HS 578T breast,7920 nM and 859 nM
same,GI50,SF-539 CNS,459 nM and 105 nM
same,TGI,SF-539 CNS,12000 nM and 5630 nM
same,GI50,TK-10 renal,3280 nM and 2780 nM
same,TGI,TK-10 renal,67200 nM and > 10000 nM
same,GI50,BT-549 breast,809 nM and 1390 nM
same,TGI,BT-549 breast,5900 nM and > 10000 nM
same,GI50,SR leukemia,56.9 nM and 39.5 nM
same,TGI,SR leukemia,> 35600 nM
same,GI50,SF-295 CNS,715 nM and 146 nM
same,TGI,SF-295 CNS,> 100000 nM
same,GI50,CAKI-1 renal,19600 nM and > 10000 nM
same,TGI,CAKI-1 renal,> 91400 nM
same,TGI,CCRF-CEM leukemia,> 100000 nM
same,GI50,NCI-H23 lung,764 nM and 609 nM
same,TGI,NCI-H23 lung,23700 nM and > 10000 nM
same,GI50,SK-MEL-2 melanoma,4330 nM and 6860 nM
same,TGI,SK-MEL-2 melanoma,33100 nM and > 10000 nM
same,GI50,KM12 colon,216 nM and 125 nM
same,TGI,KM12 colon,7090 nM and > 8180 nM
same,GI50,RXF 393 renal,593 nM and 312 nM
same,TGI,RXF 393 renal,3720 nM and 2090 nM
same,GI50,UO-31 renal,9330 nM and 3670 nM
same,TGI,UO-31 renal,33800 nM and > 10000 nM
same,GI50,MDA-MB-435,2690 nM and 3080 nM
same,TGI,MDA-MB-435,17400 nM and > 10000 nM
same,GI50,NCI-H522 lung,469 nM and 163 nM
same,TGI,NCI-H522 lung,45500 nM and > 10000 nM
same,GI50,PC-3 prostate,1530 nM and 2530 nM
same,TGI,PC-3 prostate,40700 nM and > 10000 nM
same,GI50,K-562 leukemia,106 nM and 54.7 nM
same,TGI,K-562 leukemia,> 100000 nM
same,GI50,SK-MEL-5 melanoma,1650 nM and 2760 nM
same,TGI,SK-MEL-5 melanoma,12100 nM and > 10000 nM
same,GI50,A549 NSCLC,419 nM and 158 nM
same,TGI,A549 NSCLC,> 69600 nM
same,GI50,UACC-257 melanoma,613 nM and 1060 nM
same,TGI,UACC-257 melanoma,18900 nM and > 10000 nM
same,GI50,T-47D breast,792 nM and 538 nM
same,TGI,T-47D breast,69300 nM and > 10000 nM
same,GI50,EKVX NSCLC,1730 nM and 1890 nM
same,TGI,EKVX NSCLC,37600 nM and > 10000 nM
same,GI50,NCI-H226 lung,360 nM and 80.4 nM
same,TGI,NCI-H226 lung,49300 nM and > 8910 nM
same,GI50,A498 renal,69.6 nM and 317 nM
same,TGI,A498 renal,1320 nM and 3620 nM
same,GI50,RPMI-8226 leukemia,7040 nM and 5810 nM
same,TGI,RPMI-8226 leukemia,> 52500 nM
same,GI50,786-0 renal,2550 nM and 2000 nM
same,TGI,786-0 renal,31400 nM and > 10000 nM
same,GI50,IGROV1 ovarian,282 nM and 62.4 nM
same,TGI,IGROV1 ovarian,3010 nM and 2950 nM
same,TGI,SN12C renal,> 100000 nM
same,GI50,OVCAR-5 ovarian,1350 nM and 850 nM
same,TGI,OVCAR-5 ovarian,> 68800 nM
same,GI50,MALME-3M melanoma,509 nM and 4410 nM
same,TGI,MALME-3M melanoma,22900 nM and > 10000 nM
same,GI50,NCI-H460 lung,224 nM and 99.7 nM
same,TGI,NCI-H460 lung,18000 nM and > 10000 nM
same,GI50,HT29 colon,713 nM and 658 nM
same,TGI,HT29 colon,2650 nM and 8970 nM
same,GI50,HOP-62 NSCLC,1040 nM and 585 nM
same,TGI,HOP-62 NSCLC,19300 nM and > 10000 nM
same,GI50,UACC-62 melanoma,548 nM and 482 nM
same,TGI,UACC-62 melanoma,50500 nM and > 10000 nM
same,GI50,NCI/ADR-RES ovarian,> 100000 nM
same,TGI,NCI/ADR-RES ovarian,> 100000 nM
same,GI50,ACHN renal,4970 nM and 6660 nM
same,TGI,ACHN renal,> 69600 nM
same,GI50,HCC-2998 colon,525 nM and 503 nM
same,TGI,HCC-2998 colon,46000 nM and > 10000 nM
same,GI50,SK-OV-3 ovarian,591 nM and 863 nM
same,TGI,SK-OV-3 ovarian,> 41200 nM
same,GI50,M14 melanoma,3730 nM and 2340 nM
same,TGI,M14 melanoma,23400 nM and > 10000 nM
same,GI50,SK-MEL-28 melanoma,3110 nM and 2720 nM
same,TGI,SK-MEL-28 melanoma,20900 nM and > 10000 nM
same,GI50,HCT-15 colon,18800 nM and > 10000 nM
same,TGI,HCT-15 colon,> 100000 nM
same,GI50,HL-60(TB) leukemia,3250 nM and 4350 nM
same,TGI,HL-60(TB) leukemia,28300 nM and > 10000 nM
same,GI50,MOLT-4 leukemia,12600 nM and 2300 nM
same,TGI,MOLT-4 leukemia,> 81100 nM
same,GI50,SF-268 CNS,1060 nM and 889 nM
same,TGI,SF-268 CNS,8080 nM and 4640 nM
same,GI50,OVCAR-3 ovarian,866 nM and 1130 nM
same,TGI,OVCAR-3 ovarian,> 87000 nM
same,GI50,HCT-116 colon,117 nM and 87.9 nM
same,TGI,HCT-116 colon,6670 nM and > 8710 nM
same,GI50,HOP-92 NSCLC,153 nM and 63.9 nM
same,TGI,HOP-92 NSCLC,731 nM and 1240 nM
same,GI50,U251 CNS,2160 nM and 1510 nM
same,TGI,U251 CNS,> 50100 nM
same,GI50,SNB-19 CNS,4020 nM and 2930 nM
same,TGI,SNB-19 CNS,> 100000 nM
same,GI50,SW-620 colon,314 nM and 129 nM
same,TGI,SW-620 colon,22300 nM and > 10000 nM
same,GI50,SNB-75 CNS,215 nM
same,TGI,SNB-75 CNS,1660 nM
same,GI50,OVCAR-4 ovarian,610 nM and 2820 nM
same,TGI,OVCAR-4 ovarian,> 52400 nM
same,GI50,MDA-MB-231 breast,562 nM and 142 nM
same,TGI,MDA-MB-231 breast,> 70500 nM
same,GI50,MCF7 breast,104 nM and 73.6 nM
same,TGI,MCF7 breast,23100 nM and > 10000 nM
